According to patent US6706725B1, “Vitamin D analogues” (Galderma Research & Development, S.N.C., priority 1999, dated 2004):

Each molecule was assayed against T1, human VDR receptor (Homo sapiens, UniProt P11473) (assay: VDR agonist activity by co-transfection in HeLa cells (human VDR expression vector + p240Hase-CAT reporter, CAT ELISA)). Details: HeLa cell line co-transfected with human VDR and rat 24-hydroxylase promoter-CAT reporter; treatment for 18 hours; read-out: AC 50 (dose required to achieve 50% of the maximum activity of the product).
T1 construct: expressed in transfected cells; host or cells: HeLa
T1 sequence (P11473 1-427): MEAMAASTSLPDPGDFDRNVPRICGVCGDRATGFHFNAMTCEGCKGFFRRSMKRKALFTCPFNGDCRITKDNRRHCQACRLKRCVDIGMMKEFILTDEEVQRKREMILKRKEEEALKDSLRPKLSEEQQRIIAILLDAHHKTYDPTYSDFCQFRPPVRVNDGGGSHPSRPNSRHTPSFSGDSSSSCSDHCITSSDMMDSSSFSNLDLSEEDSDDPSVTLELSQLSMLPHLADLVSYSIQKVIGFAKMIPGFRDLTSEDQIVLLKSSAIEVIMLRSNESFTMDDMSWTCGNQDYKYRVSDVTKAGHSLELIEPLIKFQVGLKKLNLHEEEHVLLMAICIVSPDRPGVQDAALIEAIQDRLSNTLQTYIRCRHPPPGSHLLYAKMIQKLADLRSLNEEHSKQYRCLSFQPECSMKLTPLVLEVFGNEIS
Assay type: cell-based
Protocol: By way of example, the VDR agonist activity can be tested on the HeLa cell line by co-transfection with an expression vector for the human VDR receptor and the reporter plasmid p240Hase-CAT which contains the region −1399 to +76 of rat 24-hydroxylase promoter, cloned upstream of the frame encoding the chloramphenicol-acetyl-transferase (CAT) gene. 18 hours after co-transfection, the test product is added to the medium. After treatment for 18 hours, assay of the CAT activity in the cell lysates is carried out by an ELISA test. The results are expressed as percentages of the effect normally observed with 10^−7M calcitriol.
The agonist activity can also be characterized in the co-transfection system, by determining the dose required to reach 50% of the maximum activity of the product (AC50).
The VDR agonist activity was tested on the HeLa cell line, by co-transfection of an expression vector of the human VDR receptor and of the reporter plasmid p240Hase-CAT which contains the region −1399 to +76 of the rat 24-hydroxylase promoter, cloned upstream of the coding frame of the chloramphenicol-acetyl-transferase (CAT) gene. 18 hours after co-transfection, the test product is added to the medium. After treatment for 18 hours, the CAT activity of the cell lysates is assayed by an ELISA test. The results are expressed as a percentage of the effect normally observed with 10^−7 M of calcitriol.
The agonist activity was characterized in this co-transfection system by determining the dose required to achieve 50% of the maximum activity of the product (AC50).

First: CCC(O)(CC)CC/C=C(\C)c1ccc(COc2ccc(CO)c(CO)c2)s1 [Example 1, (E)-7-[5-(3,4-bis-Hydroxymethyl-phenoxymethyl)-2-thienyl]-3-ethyloct-6-en-3-ol]
Second: CC/C(=C\CCC(O)(CC)CC)c1ccc(COc2ccc(CO)c(CO)c2)s1 [Example 6, (E)-7-[5-(3,4-bis-Hydroxymethyl-phenoxymethyl)-2-thienyl]-3-ethylnon-6-en-3-ol]
The AC50 of the first is 3.1-fold higher: 192 nM for the first, 61 nM for the second.

Compared with `CCC(O)(CC)CC/C=C(\C)c1cc(COc2ccc(CO)c(CO)c2)cs1` [Example 2, (E)-7-[4-(3,4-bis-Hydroxymethyl-phenoxymethyl)-2-thienyl]-3-ethyloct-6-en-3-ol], `CC/C(=C\CCC(O)(CC)CC)c1csc(COc2ccc(CO)c(CO)c2)c1` [Example 12, (E)-7-[5-(3,4-bis-Hydroxymethyl-phenoxymethyl)-3-thienyl]-3-ethylnon-6-en-3-ol] is 2.5-fold higher in AC50: 267 nM for the first, 655 nM for the second.

First: CC/C(=C\CCC(O)(CC)CC)c1cccc(COc2ccc(CO)c(CO)c2)n1 [Example 4, (E)-7-[6-(3,4-bis-Hydroxymethyl-phenoxymethyl)-2-pyridyl]-3-ethylnon-6-en-3-ol]
Second: CC/C(=C\CCC(O)(CC)CC)c1ccc(CCc2ccc(CO)c(CO)c2)s1 [Example 8, (E)-7-{5-[2-(3,4-bis-Hydroxymethyl-phenyl)ethyl]-2-thienyl}-3-ethylnon-6-en-3-ol]
The AC50 of the first is 10-fold higher: 294 nM for the first, 29 nM for the second.

Compared with `CC/C(=C\C=C\C(O)(CC)CC)c1ccc(COc2ccc(CO)c(CO)c2)s1` [Example 7, (4E,6E)-7-[5-(3,4-bis-Hydroxymethyl-phenoxymethyl)-2-thienyl]-3-ethylnona-4,6-dien-3-ol], `CC/C(=C\C=C\C(O)(C(F)(F)F)C(F)(F)F)c1ccc(COc2ccc(CO)c(CO)c2)s1` [Example 13, (3E,5E)-6-[5-(3,4-bis-Hydroxymethyl-phenoxymethyl)-2-thienyl]-1,1,1-trifluoro-2-trifluoromethylocta-3,5-dien-2-ol] is 4.6-fold higher in AC50: 17 nM for the first, 78 nM for the second.

In the case of `CC/C(=C\CCC(O)(CC)CC)c1cc(CCc2ccc(CO)c(CO)c2)cs1` [Example 10, (E)-7-[4-[2-(3,4-bis-Hydroxymethyl-phenyl)ethyl]-2-thienyl)-3-ethylnon-6-en-3-ol], the AC50 is reported as 23 nM.
